From PMC6019134, “1,2,6-Thiadiazinones as Novel Narrow Spectrum Calcium/Calmodulin-Dependent Protein Kinase Kinase 2 (CaMKK2) Inhibitors” (Molecules : A Journal of Synthetic Chemistry and Natural …, 2018)

What was measured:
Experiment in all cases: DSF thermal shift, kinase panel
Type in all cases: binding
Details in all cases: 10 μM compound
CAMK1G = molecular target: T1, CAMK1G (Homo sapiens, UniProt Q96NX5)
T1 construct: purchased in-house (home-made panel, SGC-style construct names)
In short: (§1)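 DSF: 1 µM tag-cleaved kinase, 10 µM cpd, 100 mM K2HPO4 pH 7.5/150 mM NaCl/10% glycerol + dye; 5 min 25 °C, ramp to 95 °C @ 0.05 °C/s; dTm vs 0.2% DMSO, Boltzmann fit.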

CAMKK1 = molecular target: T2, CAMKK1 (Homo sapiens, UniProt Q8N5S9)
T2 construct: purchased in-house (home-made panel, SGC-style construct names)
In short: as §1

CAMKK2B = molecular target: T3, CAMKK2B (Homo sapiens, UniProt Q96RR4)
T3 construct: purchased in-house (home-made panel, SGC-style construct names)
In short: as §1

CDK2 = molecular target: T4, CDK2 (Homo sapiens, UniProt P24941)
T4 construct: purchased in-house (home-made panel, SGC-style construct names)
In short: as §1

CHEK2 = molecular target: T5, CHEK2 (Homo sapiens, UniProt O96017)
T5 construct: purchased in-house (home-made panel, SGC-style construct names)
In short: as §1

CSNK1G3 = molecular target: T6, CSNK1G3 (Homo sapiens, UniProt Q9Y6M4)
T6 construct: purchased in-house (home-made panel, SGC-style construct names)
In short: as §1

DYRK2A = molecular target: T7, DYRK2A (Homo sapiens, UniProt Q92630)
T7 construct: purchased in-house (home-made panel, SGC-style construct names)
T7 sequence (Q92630 1-601): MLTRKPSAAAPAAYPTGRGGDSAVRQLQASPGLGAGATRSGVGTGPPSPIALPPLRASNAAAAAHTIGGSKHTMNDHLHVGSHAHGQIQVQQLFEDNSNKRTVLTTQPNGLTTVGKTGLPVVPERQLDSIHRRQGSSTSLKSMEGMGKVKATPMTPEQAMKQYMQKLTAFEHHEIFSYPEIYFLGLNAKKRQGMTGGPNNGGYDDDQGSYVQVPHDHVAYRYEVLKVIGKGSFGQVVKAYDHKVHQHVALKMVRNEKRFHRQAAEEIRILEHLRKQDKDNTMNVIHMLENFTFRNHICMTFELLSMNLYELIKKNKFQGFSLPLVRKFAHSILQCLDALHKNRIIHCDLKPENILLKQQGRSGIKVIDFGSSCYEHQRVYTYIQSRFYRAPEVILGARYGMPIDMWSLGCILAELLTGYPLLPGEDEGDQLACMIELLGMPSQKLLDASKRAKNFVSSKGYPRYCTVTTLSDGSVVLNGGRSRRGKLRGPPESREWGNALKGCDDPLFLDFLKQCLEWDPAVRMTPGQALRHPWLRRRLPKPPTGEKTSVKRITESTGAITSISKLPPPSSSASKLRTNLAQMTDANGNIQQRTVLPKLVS
In short: as §1

MAPK14B = molecular target: T8, MAPK14B (Homo sapiens, UniProt Q16539)
T8 construct: purchased in-house (home-made panel, SGC-style construct names)
In short: as §1

MAPK1A = molecular target: T9, MAPK1A (Homo sapiens, UniProt P28482)
T9 construct: purchased in-house (home-made panel, SGC-style construct names)
In short: as §1

MAPK3A = molecular target: T10, MAPK3A (Homo sapiens, UniProt P27361)
T10 construct: purchased in-house (home-made panel, SGC-style construct names)
In short: as §1

PLK1A = molecular target: T11, PLK1A (Homo sapiens, UniProt P53350)
T11 construct: purchased in-house (home-made panel, SGC-style construct names)
In short: as §1

RPS6KA5A = molecular target: T12, RPS6KA5A (Homo sapiens, UniProt O75582)
T12 construct: purchased in-house (home-made panel, SGC-style construct names)
In short: as §1

VRK1 = molecular target: T13, VRK1 (Homo sapiens, UniProt Q99986)
T13 construct: TEV-cleavable (cleaved yes); made in house; host or cells: E. coli
T13 sequence (Q99986 1-396): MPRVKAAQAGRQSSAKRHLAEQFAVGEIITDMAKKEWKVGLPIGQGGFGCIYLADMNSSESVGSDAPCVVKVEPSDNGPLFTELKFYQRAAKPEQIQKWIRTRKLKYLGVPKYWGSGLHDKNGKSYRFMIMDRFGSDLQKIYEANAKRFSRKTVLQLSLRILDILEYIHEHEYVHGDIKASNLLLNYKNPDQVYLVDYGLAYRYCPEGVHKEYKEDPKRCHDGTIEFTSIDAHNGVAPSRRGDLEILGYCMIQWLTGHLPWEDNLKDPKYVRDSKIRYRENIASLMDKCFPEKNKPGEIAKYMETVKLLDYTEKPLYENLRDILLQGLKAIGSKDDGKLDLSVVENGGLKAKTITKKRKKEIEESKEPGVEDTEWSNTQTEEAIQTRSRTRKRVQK
In short: as §1

T3 sequence (Q96RR4 161-449): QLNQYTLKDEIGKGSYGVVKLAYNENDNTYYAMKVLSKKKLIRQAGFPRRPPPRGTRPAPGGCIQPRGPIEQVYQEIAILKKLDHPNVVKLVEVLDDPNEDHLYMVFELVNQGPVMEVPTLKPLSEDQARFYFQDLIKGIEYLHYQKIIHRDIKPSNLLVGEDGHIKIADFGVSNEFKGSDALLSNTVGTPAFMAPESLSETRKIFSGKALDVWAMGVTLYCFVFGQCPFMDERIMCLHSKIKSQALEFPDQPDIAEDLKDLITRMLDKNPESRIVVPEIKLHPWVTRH
T10 sequence (P27361 whole entry): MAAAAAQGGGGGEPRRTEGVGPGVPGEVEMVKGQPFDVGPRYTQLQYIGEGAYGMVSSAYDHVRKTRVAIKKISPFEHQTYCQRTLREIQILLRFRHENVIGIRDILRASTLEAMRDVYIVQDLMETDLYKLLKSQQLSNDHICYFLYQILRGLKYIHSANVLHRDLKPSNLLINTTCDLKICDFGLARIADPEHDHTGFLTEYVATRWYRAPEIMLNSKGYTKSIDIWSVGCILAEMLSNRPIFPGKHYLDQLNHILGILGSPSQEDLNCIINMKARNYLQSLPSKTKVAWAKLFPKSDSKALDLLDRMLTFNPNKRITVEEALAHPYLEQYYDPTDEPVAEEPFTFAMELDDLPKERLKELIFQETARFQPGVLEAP
T2 sequence (Q8N5S9 whole entry): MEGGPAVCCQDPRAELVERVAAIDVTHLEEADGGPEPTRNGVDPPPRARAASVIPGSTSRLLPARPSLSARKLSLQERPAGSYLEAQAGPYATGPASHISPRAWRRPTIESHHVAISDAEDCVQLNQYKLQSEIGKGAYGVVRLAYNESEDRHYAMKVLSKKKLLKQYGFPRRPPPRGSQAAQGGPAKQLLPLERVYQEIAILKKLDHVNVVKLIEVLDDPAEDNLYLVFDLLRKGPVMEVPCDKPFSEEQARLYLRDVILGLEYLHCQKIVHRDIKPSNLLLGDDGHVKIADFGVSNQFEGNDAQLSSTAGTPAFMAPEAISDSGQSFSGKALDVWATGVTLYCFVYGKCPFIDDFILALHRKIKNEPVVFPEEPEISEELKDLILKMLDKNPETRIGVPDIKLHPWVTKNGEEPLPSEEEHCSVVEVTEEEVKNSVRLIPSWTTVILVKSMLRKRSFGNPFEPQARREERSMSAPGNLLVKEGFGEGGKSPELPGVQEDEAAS
T9 sequence (P28482 whole entry): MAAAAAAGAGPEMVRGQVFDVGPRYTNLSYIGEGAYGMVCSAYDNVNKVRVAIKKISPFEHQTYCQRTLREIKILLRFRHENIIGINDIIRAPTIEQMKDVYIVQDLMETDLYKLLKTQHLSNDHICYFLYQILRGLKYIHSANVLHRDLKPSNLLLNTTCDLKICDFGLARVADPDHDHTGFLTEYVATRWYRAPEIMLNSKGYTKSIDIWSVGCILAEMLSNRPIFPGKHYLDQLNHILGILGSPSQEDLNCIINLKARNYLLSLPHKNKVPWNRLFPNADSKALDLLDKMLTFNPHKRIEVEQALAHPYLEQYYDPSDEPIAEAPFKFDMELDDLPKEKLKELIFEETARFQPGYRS
T5 sequence (O96017 whole entry): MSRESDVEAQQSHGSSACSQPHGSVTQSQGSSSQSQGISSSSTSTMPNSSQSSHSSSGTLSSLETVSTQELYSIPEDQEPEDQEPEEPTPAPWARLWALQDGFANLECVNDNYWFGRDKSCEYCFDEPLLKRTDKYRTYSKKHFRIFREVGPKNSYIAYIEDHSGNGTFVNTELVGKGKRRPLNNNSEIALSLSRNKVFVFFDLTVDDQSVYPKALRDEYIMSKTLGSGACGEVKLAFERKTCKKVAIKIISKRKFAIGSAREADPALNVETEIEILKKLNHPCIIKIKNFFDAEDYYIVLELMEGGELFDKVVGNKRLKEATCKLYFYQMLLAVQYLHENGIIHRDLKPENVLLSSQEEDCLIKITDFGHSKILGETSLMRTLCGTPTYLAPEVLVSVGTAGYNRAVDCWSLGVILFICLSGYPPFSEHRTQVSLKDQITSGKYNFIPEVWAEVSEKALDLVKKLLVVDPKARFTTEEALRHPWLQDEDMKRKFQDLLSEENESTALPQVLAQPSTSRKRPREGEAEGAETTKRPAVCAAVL
T6 sequence (Q9Y6M4 whole entry): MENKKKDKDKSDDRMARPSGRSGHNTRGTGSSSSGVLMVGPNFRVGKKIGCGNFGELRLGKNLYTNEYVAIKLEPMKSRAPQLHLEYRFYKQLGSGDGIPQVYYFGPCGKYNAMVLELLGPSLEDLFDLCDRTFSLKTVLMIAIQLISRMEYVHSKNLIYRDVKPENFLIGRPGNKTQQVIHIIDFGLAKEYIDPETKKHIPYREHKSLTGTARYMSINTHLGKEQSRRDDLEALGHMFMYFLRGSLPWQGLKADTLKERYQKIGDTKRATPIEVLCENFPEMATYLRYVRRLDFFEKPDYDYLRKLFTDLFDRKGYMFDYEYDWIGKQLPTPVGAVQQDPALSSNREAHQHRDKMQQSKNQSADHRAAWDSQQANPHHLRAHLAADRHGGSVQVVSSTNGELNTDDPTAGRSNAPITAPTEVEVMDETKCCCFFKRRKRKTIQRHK
T1 sequence (Q96NX5 whole entry): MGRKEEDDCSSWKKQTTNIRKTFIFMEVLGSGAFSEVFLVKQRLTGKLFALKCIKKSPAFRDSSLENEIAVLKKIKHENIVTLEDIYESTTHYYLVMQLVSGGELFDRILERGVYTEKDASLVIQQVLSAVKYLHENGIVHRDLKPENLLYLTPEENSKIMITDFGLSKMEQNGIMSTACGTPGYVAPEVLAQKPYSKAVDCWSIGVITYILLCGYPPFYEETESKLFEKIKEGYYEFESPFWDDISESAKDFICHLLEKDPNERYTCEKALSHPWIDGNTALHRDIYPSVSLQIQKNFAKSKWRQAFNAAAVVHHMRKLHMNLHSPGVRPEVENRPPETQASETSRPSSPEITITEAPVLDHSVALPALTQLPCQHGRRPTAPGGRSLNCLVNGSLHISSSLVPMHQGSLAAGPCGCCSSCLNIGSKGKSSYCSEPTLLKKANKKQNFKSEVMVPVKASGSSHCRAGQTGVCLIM
T11 sequence (P53350 whole entry): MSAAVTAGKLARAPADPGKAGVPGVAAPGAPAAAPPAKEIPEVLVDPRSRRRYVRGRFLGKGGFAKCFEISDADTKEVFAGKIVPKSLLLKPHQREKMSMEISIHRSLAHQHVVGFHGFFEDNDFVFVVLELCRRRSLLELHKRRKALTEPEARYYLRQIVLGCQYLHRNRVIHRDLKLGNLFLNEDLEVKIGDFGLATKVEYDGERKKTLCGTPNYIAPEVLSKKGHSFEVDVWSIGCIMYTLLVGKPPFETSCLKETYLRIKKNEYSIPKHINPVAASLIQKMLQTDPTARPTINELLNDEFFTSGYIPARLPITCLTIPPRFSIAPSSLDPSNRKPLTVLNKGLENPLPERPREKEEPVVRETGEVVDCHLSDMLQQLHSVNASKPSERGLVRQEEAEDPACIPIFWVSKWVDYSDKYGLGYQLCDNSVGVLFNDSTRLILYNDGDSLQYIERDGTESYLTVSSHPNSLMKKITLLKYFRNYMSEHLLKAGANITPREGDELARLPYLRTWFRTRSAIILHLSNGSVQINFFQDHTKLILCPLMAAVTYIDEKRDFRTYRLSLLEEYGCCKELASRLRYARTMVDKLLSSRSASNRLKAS
T12 sequence (O75582 whole entry): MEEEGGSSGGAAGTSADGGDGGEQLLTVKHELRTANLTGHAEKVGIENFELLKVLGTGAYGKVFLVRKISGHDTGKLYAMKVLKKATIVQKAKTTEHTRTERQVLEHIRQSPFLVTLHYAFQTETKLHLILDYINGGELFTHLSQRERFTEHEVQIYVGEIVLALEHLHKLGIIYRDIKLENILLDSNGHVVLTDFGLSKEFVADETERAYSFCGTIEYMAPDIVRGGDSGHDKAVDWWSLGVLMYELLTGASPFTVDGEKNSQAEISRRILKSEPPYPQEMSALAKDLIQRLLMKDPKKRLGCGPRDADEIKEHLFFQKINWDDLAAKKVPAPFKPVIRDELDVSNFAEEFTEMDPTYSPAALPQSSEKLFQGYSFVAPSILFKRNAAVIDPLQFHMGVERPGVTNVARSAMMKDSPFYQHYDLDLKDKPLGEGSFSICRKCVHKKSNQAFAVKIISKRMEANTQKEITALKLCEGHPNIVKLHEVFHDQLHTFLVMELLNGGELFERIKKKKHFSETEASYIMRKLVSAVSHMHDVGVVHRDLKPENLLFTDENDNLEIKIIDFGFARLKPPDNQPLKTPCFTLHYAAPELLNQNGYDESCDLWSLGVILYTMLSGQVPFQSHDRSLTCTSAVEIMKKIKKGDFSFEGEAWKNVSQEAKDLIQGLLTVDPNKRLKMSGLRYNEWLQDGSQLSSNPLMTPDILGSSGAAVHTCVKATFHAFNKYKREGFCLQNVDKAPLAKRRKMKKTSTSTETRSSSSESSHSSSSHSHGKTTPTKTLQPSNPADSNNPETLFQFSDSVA
T8 sequence (Q16539 whole entry): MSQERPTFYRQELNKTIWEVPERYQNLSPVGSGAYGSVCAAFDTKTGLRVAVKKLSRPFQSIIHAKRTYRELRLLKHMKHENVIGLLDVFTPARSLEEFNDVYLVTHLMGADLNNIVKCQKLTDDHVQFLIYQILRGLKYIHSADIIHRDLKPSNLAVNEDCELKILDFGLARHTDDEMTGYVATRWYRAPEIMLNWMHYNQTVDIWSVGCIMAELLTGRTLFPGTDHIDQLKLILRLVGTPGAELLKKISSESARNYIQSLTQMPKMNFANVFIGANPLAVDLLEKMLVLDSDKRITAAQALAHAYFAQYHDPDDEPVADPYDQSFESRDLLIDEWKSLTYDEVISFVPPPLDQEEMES

Row | SMILES | ΔTm at 10 µM (CAMK1G) [°C] | ΔTm at 10 µM (CAMKK1) [°C] | ΔTm at 10 µM (CAMKK2B) [°C] | ΔTm at 10 µM (CDK2) [°C] | ΔTm at 10 µM (CHEK2) [°C] | ΔTm at 10 µM (CSNK1G3) [°C] | ΔTm at 10 µM (DYRK2A) [°C] | ΔTm at 10 µM (MAPK14B) [°C] | ΔTm at 10 µM (MAPK1A) [°C] | ΔTm at 10 µM (MAPK3A) [°C] | ΔTm at 10 µM (PLK1A) [°C] | ΔTm at 10 µM (RPS6KA5A) [°C] | ΔTm at 10 µM (VRK1) [°C]
1 | CNC(=O)c1ccccc1Nc1nsnc(Nc2cccc(CS(C)(=O)=O)c2)c1=O [Compound 4, N-Methyl-2-([5-({3-[(methylsulfonyl)methyl]phenyl}amino)-4-oxo-4H-1,2,6-thiadiazin-3-yl]-amino}-benzamide] | 0.2 | -0.4 | -0.4 | 0.2 | 0.6 | -0.1 | 0.1 | -0.2 | -0.3 | 0.1 | 0.2 | -1.2 | -0.3
2 | CNC(=O)c1ccccc1Nc1nsnc(Nc2ccc(N3CCOCC3)cc2)c1=O [Compound 5, N-Methyl-2-({5-[(4-morpholinophenyl)amino]-4-oxo-4H-1,2,6-thiadiazin-3-yl}amino)benzamide] | 0.1 | -0.4 | -0.5 | -0.1 | 0.8 | 0 | 0.1 | -0.3 | -0.3 | 0.1 | 0.2 | -1.1 | -0.3
3 | Cc1ccc(Nc2nsnc(Nc3ccc(C(N)=O)cc3)c2=O)cc1O [Compound 2, 4-({5-[(3-Hydroxy-4-methylphenyl)amino]-4-oxo-4H-1,2,6-thiadiazin-3-yl}amino)benzamide] | 3.3 | 3.7 | 2.9 | 2.7 | 3.1 | 0.1 | 2.4 | 0.6 | 1.4 | 1.2 | -0.2 | 1.7 | -0.7
4 | Cc1ccc(Nc2nsnc(Nc3ccc4c(c3)CS(=O)(=O)C4)c2=O)cc1O [Compound 3, 3-[(2,2-Dioxido-1,3-dihydrobenzo[c]thiophen-5-yl)amino]-5-[(3-hydroxy-4-methylphenyl)amino]-4H-1,2,6-thiadiazin-4-one] | 3 | 1.4 | 2.3 | 1.8 | 1.6 | -0.2 | 0.7 | 1 | 0.1 | 0.4 | 1.1 | -0.3 | -0.2
5 | Cc1ccc(Nc2nsnc(Nc3cccc(C(N)=O)c3)c2=O)cc1O [Compound 1, 3-({5-[(3-Hydroxy-4-methylphenyl)amino]-4-oxo-4H-1,2,6-thiadiazin-3-yl}amino)benzamide] | 1.8 | 0 | 0.5 | 0.2 | 0.6 | 0 | 0.1 | 0 | -0.2 | 0.1 | 0.3 | -0.9 | -0.4
